Experiments:
CCK-B = target: T1, CCK-B (Cavia porcellus, UniProt H0VZC5); assay: displacement of specific 125I-CCK from guinea pig brain (CCK-B receptor binding); details: read-out: CCK RECEPTOR BINDING RESULTS IC50 125I-CCK Brain
T1 construct: guinea pig brain (CCK-B); from tissue; host or cells: guinea pig brain
T1 sequence (H0VZC5 1-426): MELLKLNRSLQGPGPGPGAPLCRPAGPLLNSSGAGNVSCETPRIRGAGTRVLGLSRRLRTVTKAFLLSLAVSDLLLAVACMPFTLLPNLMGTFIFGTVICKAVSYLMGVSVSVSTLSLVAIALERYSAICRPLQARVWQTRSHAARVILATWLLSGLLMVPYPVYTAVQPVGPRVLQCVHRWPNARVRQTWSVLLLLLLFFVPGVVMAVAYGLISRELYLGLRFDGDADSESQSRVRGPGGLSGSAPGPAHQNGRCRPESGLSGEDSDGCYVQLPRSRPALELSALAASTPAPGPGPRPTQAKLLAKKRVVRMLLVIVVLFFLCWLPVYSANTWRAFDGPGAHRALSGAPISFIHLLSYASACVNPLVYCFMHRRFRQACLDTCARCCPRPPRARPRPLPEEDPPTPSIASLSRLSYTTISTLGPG
Method: (§1) The CCK-A and CCK-B antagonising activity of the compounds described herein was evaluated using the assays described in published European patent application no. 0514133. The method essentially involves determining the concentration of the test compound required to displace 50% of the specific ^125 I-CCK from rat pancreas (CCK-A) or guinea pig brain (CCK-B). The data in Table 1 were obtained for compounds of the Examples.

CCK-A = target: T2, CCK-A (Rattus norvegicus, UniProt P30551); assay: biochemical; type: binding; details: rat pancreas (CCK-A), 125I-CCK; read-out: CCK RECEPTOR BINDING RESULTS IC50 125I-CCK Pancreas
T2 sequence (P30551 1-444): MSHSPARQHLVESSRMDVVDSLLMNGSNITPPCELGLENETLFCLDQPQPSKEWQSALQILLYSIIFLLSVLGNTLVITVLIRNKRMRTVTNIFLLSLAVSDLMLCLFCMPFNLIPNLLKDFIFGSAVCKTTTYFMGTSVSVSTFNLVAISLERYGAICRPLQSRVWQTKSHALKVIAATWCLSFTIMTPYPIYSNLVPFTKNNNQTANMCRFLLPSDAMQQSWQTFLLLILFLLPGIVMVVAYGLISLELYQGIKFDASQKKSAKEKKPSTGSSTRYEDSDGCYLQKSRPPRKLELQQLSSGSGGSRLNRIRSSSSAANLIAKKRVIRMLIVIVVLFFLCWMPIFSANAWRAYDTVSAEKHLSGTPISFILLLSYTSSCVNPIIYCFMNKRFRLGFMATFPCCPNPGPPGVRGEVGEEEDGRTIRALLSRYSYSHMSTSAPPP
Method: as §1, with “(CCK-B).” for “(CCK-B). The data in Table 1 were obtained for compounds of the Examples.”

Row | Molecule | IC50 (CCK-B) [nM] | IC50 (CCK-A) [nM]
1 | CCCN1C(=O)C(NC(=O)Nc2cccc(C)c2)N=C(N2C[C@@H]3C[C@H]2CN3C)c2ccccc21 (stereo partly drawn) [Example 32, N-[3(R,S)-2,3-Dihydro-5-((1S,4S)-5-methyl-2,5-diazabicyclo-[2,2,1]heptan-2-yl)-2-oxo-1-propyl-1H-1,4-benzodiazepin-3-yl]-N'-[3-methylphenyl]urea] | 22 | > 3000
2 | CC(C)CN1C(=O)C(NC(=O)[C@@H]2Cc3ccccc3N2)N=C(N2CCCCCC2)c2ccccc21 (stereo partly drawn) [Example 93, 3(R,S)-N-(2,3-Dihydro-5-(homopiperidin-1-yl)-1-(2-methylpropyl)-2-oxo-1H-1,4-benzodiazepin-3-yl)-(2S)-indoline-2-carboxamide] | 348 | 101
3 | (+)-[5-(N-Cycloheptyl-N-methylamino)-2,3-dihydro-1ethyl-2-oxo-1H-1,4-benzodiazepin-3-yl ]-N'-[5-indanyl ]urea Hydrochloride [Example 71] | 86 | 145
